Reference: US6929685B2, “Alkylamine derivatives as antifouling agents” (Bayer Atiengesellschaft, priority 2001, dated 2005)

Tests used:
Details in all cases: Dutch harbor, sea water
[1] = tested on: fouling organisms; test: Raft panel static immersion test of antifouling paints: overall; parameters: key: good (G); satisfactory (S); failure (F)
Source text: (§1) The prepared paints have been evaluated on can stability, adhesion and film defects. The antifouling performance has been tested by application of the paints on raft panels. At first the steel panels had been protected with a standard anticorrosive system for marine environments (300 μm in dft). The to be tested antifouling paint had been applied in 2 layers with a total dry film thickness between 200 and 300 μm. Finally the panels were subjected to a static immersion test on rafts at sea harbors in Holland. The paints were inspected for the presence of fouling (% of area covered with fouling organisms) and of film defects every two months. The tested paint formulations are represented in Table 1.
(§2) Further explanations to Table 1: • 1. Model coatings of type 1 (MC-1A/B/C) are for the evaluation of the algicidal properties of the claimed structures at three different representative weight-% next to 35% cuprous oxide. Good performing references are model coating MC-2 and MC-3 [35% cuprous oxide+3% Seanine (MC-2) or 35% cuprous oxide+3% Irgarol (MC-3)]. Base level references are “cuprous oxide only” formulations [cuprous oxide only (35% (MC4) and 50% level (MC-5)]. • 2. Model coatings of type 6 and 7 are for the evaluation of the activity of the claimed structures against “hard fouling” in combination with two different types of algicides: claimed structure (1/2/4%; MC-6-A/B/C)+3% Seanine or claimed structure (1/2/4%; MC-7-A/B/C)+3% Irgarol). Base level references are “algicide only” formulations with 3% Seanine (MC-8) or 3% Irgarol (MC-9).
(§3) 3. Model coatings of type 10 (MC-10A/B) evaluate the total spectrum of biocidal activity by using the claimed structure as only biocide at 2 levels (4 and 8 w %). Good performing references are “cuprous oxide only” formulations [cuprous oxide 35% (MC-4) and 50% (MC-5)]. As blank serves model coating 11 (MC-1 1) containing no biocide at all.
(§4) The claimed structures were tested at several levels of dosage with and without an algicide as co-biocide. The following formulations were used for comparison: formulations with cuprous oxide, formulations with cuprous oxide and commercial co-biocides, a blank and two formulations that only contained the co-biocide and finally a commercial tributyltin-releasing self polishing system.
(§5) An even better protection can be obtained by combining claimed structures with co-biocides like the algicides that are commonly used for antifoulings.

[2] = tested on: slime; test: Raft panel static immersion test of antifouling paints: slime; parameters: key: G: Not present; Some light slime; F: Overall covered
Source text: as §1, §2, §3, §4, §5

[3] = tested on: algae; test: Raft panel static immersion test of antifouling paints: algae; parameters: key: G: Not present; Some light slime; F: Overall covered
Source text: as §1, §2, §3, §4, §5

[4] = tested on: hard fouling; test: Raft panel static immersion test of antifouling paints: hard fouling; parameters: key: G: Not present; Some light slime; F: Overall covered
Source text: as §1, §2, §3, §4, §5

[5] = model coating 1A: 35% Cu2O + 1% of compound
[6] = model coating 1B: 35% Cu2O + 2% of compound
[7] = model coating 1C: 35% Cu2O + 3% of compound
[8] = model coating 6A: 1% of compound + 3% Seanine
[9] = model coating 6B: 2% of compound + 3% Seanine
[10] = model coating 6C: 4% of compound + 3% Seanine
[11] = model coating 7A: 1% of compound + 3% Irgarol
[12] = model coating 7B: 2% of compound + 3% Irgarol
[13] = model coating 7C: 4% of compound + 3% Irgarol
[14] = model coating 10A: 4% of compound as only biocide
[15] = model coating 10B: 8% of compound as only biocide

Structure (SMILES)	Performance (1 yr immersed) Overall [1, 5]	Performance (1 yr immersed) Overall [1, 6]	Performance (1 yr immersed) Overall [1, 7]	Performance (1 yr immersed) Overall [1, 8]	Performance (1 yr immersed) Overall [1, 9]	Performance (1 yr immersed) Overall [1, 10]	Performance (1 yr immersed) Overall [1, 11]	Performance (1 yr immersed) Overall [1, 12]	Performance (1 yr immersed) Overall [1, 13]	Performance (1 yr immersed) Overall [1, 14]	Performance (1 yr immersed) Overall [1, 15]	Performance (1 yr immersed) Slime [2, 5]	Performance (1 yr immersed) Slime [2, 6]	Performance (1 yr immersed) Slime [2, 7]	Performance (1 yr immersed) Slime [2, 8]	Performance (1 yr immersed) Slime [2, 9]	Performance (1 yr immersed) Slime [2, 10]	Performance (1 yr immersed) Slime [2, 11]	Performance (1 yr immersed) Slime [2, 12]	Performance (1 yr immersed) Slime [2, 13]	further results
COC(=O)NCCCCCCBr [Compound 2, N-methoxycarbonyl-6-bromohexylamine]	S	S	G	F	S	G	F	S	S	F	S	S	S	G	S	S	G	S	S	S	Performance (1 yr immersed) Slime [2, 14]: F; Performance (1 yr immersed) Slime [2, 15]: S; Performance (1 yr immersed) Algae [3, 6]: G; Performance (1 yr immersed) Algae [3, 7]: G; Performance (1 yr immersed) Algae [3, 8]: G; Performance (1 yr immersed) Algae [3, 9]: G; Performance (1 yr immersed) Algae [3, 10]: G; Performance (1 yr immersed) Algae [3, 11]: G; Performance (1 yr immersed) Algae [3, 12]: G; Performance (1 yr immersed) Algae [3, 13]: G; Performance (1 yr immersed) Hard fouling [4, 5]: G; Performance (1 yr immersed) Hard fouling [4, 6]: G; Performance (1 yr immersed) Hard fouling [4, 7]: G; Performance (1 yr immersed) Hard fouling [4, 10]: G; Performance (1 yr immersed) Hard fouling [4, 15]: G
O=CNCCCCCCCCCC(Br)CBr (centres unmarked) [Compound 3, N-formyl-10,11-dibromoundecylamine]	S	S	G	F	S	G	F	S	S	F	S	S	S	G	S	S	G	S	S	S	Performance (1 yr immersed) Slime [2, 14]: F; Performance (1 yr immersed) Slime [2, 15]: S; Performance (1 yr immersed) Algae [3, 6]: G; Performance (1 yr immersed) Algae [3, 7]: G; Performance (1 yr immersed) Algae [3, 8]: G; Performance (1 yr immersed) Algae [3, 9]: G; Performance (1 yr immersed) Algae [3, 10]: G; Performance (1 yr immersed) Algae [3, 11]: G; Performance (1 yr immersed) Algae [3, 12]: G; Performance (1 yr immersed) Algae [3, 13]: G; Performance (1 yr immersed) Hard fouling [4, 5]: G; Performance (1 yr immersed) Hard fouling [4, 6]: G; Performance (1 yr immersed) Hard fouling [4, 7]: G; Performance (1 yr immersed) Hard fouling [4, 10]: G; Performance (1 yr immersed) Hard fouling [4, 15]: G
CCCCCCCCCCCNC=O [Compound 9, N-formyl-1-aminoundecane]	S	S	G	F	S	G	F	S	S	F	S	S	S	G	S	S	G	S	S	S	Performance (1 yr immersed) Slime [2, 14]: F; Performance (1 yr immersed) Slime [2, 15]: S; Performance (1 yr immersed) Algae [3, 6]: G; Performance (1 yr immersed) Algae [3, 7]: G; Performance (1 yr immersed) Algae [3, 8]: G; Performance (1 yr immersed) Algae [3, 9]: G; Performance (1 yr immersed) Algae [3, 10]: G; Performance (1 yr immersed) Algae [3, 11]: G; Performance (1 yr immersed) Algae [3, 12]: G; Performance (1 yr immersed) Algae [3, 13]: G; Performance (1 yr immersed) Hard fouling [4, 5]: G; Performance (1 yr immersed) Hard fouling [4, 6]: G; Performance (1 yr immersed) Hard fouling [4, 7]: G; Performance (1 yr immersed) Hard fouling [4, 10]: G; Performance (1 yr immersed) Hard fouling [4, 15]: G
O=CNCCCCCCCCCCCBr [Compound 7, N-formyl-11-bromo-undecyl-1-amine]	S	S	G	F	S	G	F	S	S	F	S	S	S	G	S	S	G	S	S	S	Performance (1 yr immersed) Slime [2, 14]: F; Performance (1 yr immersed) Slime [2, 15]: S; Performance (1 yr immersed) Algae [3, 6]: G; Performance (1 yr immersed) Algae [3, 7]: G; Performance (1 yr immersed) Algae [3, 8]: G; Performance (1 yr immersed) Algae [3, 9]: G; Performance (1 yr immersed) Algae [3, 10]: G; Performance (1 yr immersed) Algae [3, 11]: G; Performance (1 yr immersed) Algae [3, 12]: G; Performance (1 yr immersed) Algae [3, 13]: G; Performance (1 yr immersed) Hard fouling [4, 5]: G; Performance (1 yr immersed) Hard fouling [4, 6]: G; Performance (1 yr immersed) Hard fouling [4, 7]: G; Performance (1 yr immersed) Hard fouling [4, 10]: G; Performance (1 yr immersed) Hard fouling [4, 15]: G
